Source: PMC12155096 (International Journal of Molecular Sciences, 2025)
Where two headings read alike, the source gives them in different places.

Assays:
human CYP2D6 = human CYP2D6 (Homo sapiens, UniProt P10635)
human CYP1A2 = target: T1, human CYP1A2 (Homo sapiens, UniProt P05177); assay: biochemical
T1 sequence (P05177 1-516): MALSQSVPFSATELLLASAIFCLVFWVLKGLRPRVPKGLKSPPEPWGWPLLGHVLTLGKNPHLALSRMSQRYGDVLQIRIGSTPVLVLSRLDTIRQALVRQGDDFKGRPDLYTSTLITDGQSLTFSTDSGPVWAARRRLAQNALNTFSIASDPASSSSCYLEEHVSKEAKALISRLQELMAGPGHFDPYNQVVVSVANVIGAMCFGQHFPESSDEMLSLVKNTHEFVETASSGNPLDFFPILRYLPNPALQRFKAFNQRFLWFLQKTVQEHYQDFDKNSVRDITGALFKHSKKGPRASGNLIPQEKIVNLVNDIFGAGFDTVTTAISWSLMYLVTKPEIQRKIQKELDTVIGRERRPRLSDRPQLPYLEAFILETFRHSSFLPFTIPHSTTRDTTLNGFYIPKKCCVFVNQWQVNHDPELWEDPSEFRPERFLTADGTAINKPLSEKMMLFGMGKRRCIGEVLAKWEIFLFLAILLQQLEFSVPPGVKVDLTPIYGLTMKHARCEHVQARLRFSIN

human CYP2C9 = human CYP2C9 (Homo sapiens, UniProt P11712); assay: biochemical
Chain of human CYP2C9 (P11712 whole entry): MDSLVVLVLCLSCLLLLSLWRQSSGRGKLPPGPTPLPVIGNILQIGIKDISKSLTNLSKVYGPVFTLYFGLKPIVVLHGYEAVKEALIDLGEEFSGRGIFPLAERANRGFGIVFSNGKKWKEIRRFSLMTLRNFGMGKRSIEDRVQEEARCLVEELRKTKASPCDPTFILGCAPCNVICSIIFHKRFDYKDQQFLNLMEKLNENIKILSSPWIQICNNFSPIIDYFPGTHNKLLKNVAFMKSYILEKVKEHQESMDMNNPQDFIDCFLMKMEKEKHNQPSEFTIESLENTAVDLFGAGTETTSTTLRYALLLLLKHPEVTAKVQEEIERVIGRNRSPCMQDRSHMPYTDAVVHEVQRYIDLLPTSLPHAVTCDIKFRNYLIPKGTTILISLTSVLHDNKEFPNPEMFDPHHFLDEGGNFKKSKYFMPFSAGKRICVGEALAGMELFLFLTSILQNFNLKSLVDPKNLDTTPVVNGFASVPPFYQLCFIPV

human CYP2C19 = human CYP2C19 (Homo sapiens, UniProt P33261); assay: biochemical
Chain of human CYP2C19 (P33261 whole entry): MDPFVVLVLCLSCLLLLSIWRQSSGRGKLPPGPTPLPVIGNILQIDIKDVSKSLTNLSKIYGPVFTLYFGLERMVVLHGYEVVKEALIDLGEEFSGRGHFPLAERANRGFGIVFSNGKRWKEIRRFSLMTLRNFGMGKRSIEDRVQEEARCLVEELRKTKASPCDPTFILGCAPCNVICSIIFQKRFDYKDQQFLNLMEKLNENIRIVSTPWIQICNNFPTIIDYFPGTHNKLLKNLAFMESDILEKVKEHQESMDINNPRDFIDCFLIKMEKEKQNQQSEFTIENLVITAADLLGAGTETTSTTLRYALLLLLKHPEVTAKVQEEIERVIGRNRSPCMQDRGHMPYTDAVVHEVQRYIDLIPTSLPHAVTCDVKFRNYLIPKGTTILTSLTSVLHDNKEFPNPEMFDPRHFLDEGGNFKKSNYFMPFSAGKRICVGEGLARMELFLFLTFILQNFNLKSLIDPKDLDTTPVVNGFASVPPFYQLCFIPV

CYP3A4 = CYP3A4 (Homo sapiens, UniProt P08684); assay: biochemical
Chain of CYP3A4 (P08684 whole entry): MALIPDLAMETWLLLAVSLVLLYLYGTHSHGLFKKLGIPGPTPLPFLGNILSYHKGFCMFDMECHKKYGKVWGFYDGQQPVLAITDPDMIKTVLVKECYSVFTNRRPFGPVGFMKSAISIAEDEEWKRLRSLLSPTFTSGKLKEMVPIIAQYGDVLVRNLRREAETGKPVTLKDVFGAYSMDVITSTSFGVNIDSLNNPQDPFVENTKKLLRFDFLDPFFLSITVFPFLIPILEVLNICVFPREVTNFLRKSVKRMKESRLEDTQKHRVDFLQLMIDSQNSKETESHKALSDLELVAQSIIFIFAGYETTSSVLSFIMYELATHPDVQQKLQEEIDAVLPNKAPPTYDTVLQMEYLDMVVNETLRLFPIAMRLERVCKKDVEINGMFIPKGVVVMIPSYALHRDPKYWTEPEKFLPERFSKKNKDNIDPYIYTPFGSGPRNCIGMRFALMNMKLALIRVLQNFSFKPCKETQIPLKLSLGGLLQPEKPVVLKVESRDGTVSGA

[1] = CYP1A2 AC50 (half-maximal activity concentration)
[2] = CYP2C9 AC50 (half-maximal activity concentration)
[3] = CYP2C19 AC50 (half-maximal activity concentration)
[4] = CYP3A4 AC50 (half-maximal activity concentration)

Chain of human CYP2D6 (P10635 whole entry): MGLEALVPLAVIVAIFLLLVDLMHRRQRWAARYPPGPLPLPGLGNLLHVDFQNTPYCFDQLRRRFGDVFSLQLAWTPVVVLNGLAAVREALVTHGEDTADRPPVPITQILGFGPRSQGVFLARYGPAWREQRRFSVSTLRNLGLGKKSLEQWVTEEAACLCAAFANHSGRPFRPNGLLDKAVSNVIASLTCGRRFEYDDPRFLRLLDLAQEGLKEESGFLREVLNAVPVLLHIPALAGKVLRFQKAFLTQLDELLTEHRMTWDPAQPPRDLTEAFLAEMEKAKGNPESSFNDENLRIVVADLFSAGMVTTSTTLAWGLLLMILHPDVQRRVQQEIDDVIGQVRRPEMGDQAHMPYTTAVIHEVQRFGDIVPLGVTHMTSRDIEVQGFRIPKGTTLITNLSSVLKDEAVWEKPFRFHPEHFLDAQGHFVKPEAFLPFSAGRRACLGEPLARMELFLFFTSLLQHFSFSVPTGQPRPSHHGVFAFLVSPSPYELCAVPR

AC50 (human CYP1A2)	AC50 (human CYP2C9)	AC50 (human CYP2C19)	AC50 (CYP3A4)	SMILES	CYP2D6 AC50 (half-maximal activity concentration) (human CYP2D6)	AC50 (human CYP1A2; [1])	AC50 (human CYP2C9; [2])	AC50 (human CYP2C19; [3])	AC50 (CYP3A4; [4])
–	–	–	–	CC(C)OC(=O)COc1ccc(Cl)cc1Cl [2,4-D isopropyl ester]	Inconclusive inhibitor	13.6 µM	35 µM	15.5 µM	7.02 µM
–	–	–	–	CCCCCCC(C=O)=Cc1ccccc1 [2-Benzylideneoctanal]	Inactive	13.8 µM	31.1 µM	25.6 µM	7.81 µM
–	–	–	–	O=[N+]([O-])c1ccccc1-c1ccccc1 [2-Nitro-1,1'-biphenyl]	Inactive	1.66 µM	22.6 µM	30.4 µM	34.3 µM
17.1 µM	30.6 µM	13.5 µM	7.51 µM	O=C(OCCc1ccccc1)c1ccccc1 [2-Phenylethyl benzoate]	Inconclusive inhibitor	–	–	–	–
–	–	–	–	Nc1cc(Cl)cc(Cl)c1 [3,5-Dichloroaniline]	Inactive	30.7 µM	74.5 µM	17.7 µM	43.2 µM
–	–	–	–	O=C(C=Cc1ccccc1)OCC=Cc1ccccc1 [3-Phenyl-2-propen-1-yl 3-phenylacrylate]	Inactive	25.3 µM	29.4 µM	31.8 µM	24.9 µM
–	–	–	–	Brc1ccc(Oc2ccc(Br)cc2)cc1 [4,4'-Dibromodiphenyl ether]	Inactive	18.8 µM	24.6 µM	3.02 µM	28.4 µM
–	–	–	–	O=C(c1ccc(Cl)cc1)c1ccc(Cl)cc1 [4,4'-Dichlorobenzophenone]	Inactive	2.34 µM	6.1 µM	1.67 µM	11 µM
3.84 µM	50 µM	14.7 µM	35.6 µM	O=C(c1ccccc1)c1ccc(Cl)cc1 [4-Chlorobenzophenone]	Inconclusive inhibitor	–	–	–	–
–	–	–	–	O=C(/C=C/c1ccccc1)OCc1ccccc1 [Benzyl cinnamate]	Inactive	7.8 µM	12.4 µM	13.6 µM	21.5 µM
–	–	–	–	O=[N+]([O-])C(Br)(CO)CO [Bronopol]	Inactive	14.2 µM	4.61 µM	5.81 µM	5.19 µM
–	–	–	–	CC(C)N(Cc1ccccc1)C(=O)C(C)(C)C [Butam]	Inactive	32.6 µM	34.3 µM	15.1 µM	9.61 µM
–	–	–	–	C[Si](Cl)(c1ccccc1)c1ccccc1 [Chloro(methyl)diphenylsilane]	Inconclusive inhibitor	32.2 µM	3.53 µM	2.26 µM	23.4 µM
–	–	–	–	CCOCCOC(=O)C=Cc1ccc(OC)cc1 [Cinoxate]	Inactive	7.48 µM	13.9 µM	29.2 µM	21.9 µM
–	–	–	–	CCOC(=O)NC(C)(C)Cc1ccc(Cl)cc1 [Cloforex]	Inconclusive inhibitor	7.64 µM	15.6 µM	5.34 µM	14.6 µM
–	–	–	–	O=C(c1ccccc1)C1CCCCC1 [Cyclohexylphenylketone]	Inactive	37.4 µM	47.5 µM	44.9 µM	29.2 µM
41.7 µM	16.1 µM	57.6 µM	15.4 µM	CCCCOC(=O)CCCCC(=O)OCCCC [Dibutyl hexanedioate]	Inactive	–	–	–	–
–	–	–	–	COC(=O)C(C)Oc1ccc(Oc2ccc(Cl)cc2Cl)cc1 (stereo not drawn) [Diclofop-methyl]	Inconclusive	38.5 µM	27.5 µM	6.41 µM	12.8 µM
–	–	–	–	O=C(OCCOCCOC(=O)c1ccccc1)c1ccccc1 [Diethylene glycol dibenzoate]	Inactive	8.29 µM	12.7 µM	34.1 µM	11.4 µM
–	–	–	–	CC(C)OC(=O)c1ccccc1C(=O)OC(C)C [Diisopropyl phthalate]	Inconclusive inhibitor	3.31 µM	50.4 µM	53.2 µM	31.9 µM

AC50 (human CYP1A2)	AC50 (human CYP2C9)	AC50 (human CYP2C19)	AC50 (CYP3A4)	SMILES	CYP2D6 AC50 (half-maximal activity concentration) (human CYP2D6)	AC50 (human CYP1A2; [1])	AC50 (human CYP2C9; [2])	AC50 (human CYP2C19; [3])	AC50 (CYP3A4; [4])
–	–	–	–	COC(=O)CCCCCCCCC(=O)OC [Dimethyl decanedioate]	Inactive	40.1 µM	50.5 µM	64.5 µM	38.8 µM
–	–	–	–	O=[N+]([O-])c1cc(C2CCCCC2)c(O)c([N+](=O)[O-])c1 [Dinex]	Inconclusive inhibitor	71.1 µM	8.27 µM	39.8 µM	22.5 µM
30.8 µM	29.4 µM	21 µM	35.7 µM	CCC1OCC(COc2ccc(Oc3ccccc3)cc2)O1 (stereo not drawn) [Diofenolan]	Inconclusive inhibitor	–	–	–	–
–	–	–	–	CN(C)C(=O)C(c1ccccc1)c1ccccc1 [Diphenamid]	Inactive	50.2 µM	38.4 µM	53.7 µM	31.2 µM
–	–	–	–	O=C(Oc1ccccc1)c1ccccc1C(=O)Oc1ccccc1 [Diphenyl phthalate]	Inactive	4.94 µM	13.7 µM	14.2 µM	7.65 µM
11.3 µM	7.68 µM	5.97 µM	31.9 µM	CCCOC(=O)c1ccc(C(=O)OCCC)nc1 [Dipropyl 2,5-pyridinedicarboxylate]	Inactive	–	–	–	–
–	–	–	–	CCCOC(=O)c1ccccc1C(=O)OCCC [Dipropyl phthalate]	Inactive	2.38 µM	30 µM	7.01 µM	9.91 µM
16.5 µM	41.5 µM	25.5 µM	27.5 µM	CCOC(=O)Cc1cccc2ccccc12 [Ethyl 1-naphthaleneacetate]	Inactive	–	–	–	–
–	–	–	–	CCOC(=O)C1OC1(C)c1ccccc1 (stereo not drawn) [Ethyl methylphenylglycidate]	Inconclusive inhibitor	34.6 µM	61.4 µM	45.4 µM	37.7 µM
7.68 µM	31.9 µM	20.8 µM	47.4 µM	CCOC(=O)COC(=O)c1ccccc1C(=O)OCC [Ethyl phthalyl ethyl glycolate]	Inactive	–	–	–	–
–	–	–	–	CCOC(=O)C(C)Oc1ccc(Oc2nc3ccc(Cl)cc3o2)cc1 (stereo not drawn) [Fenoxaprop-ethyl]	Inconclusive inhibitor	23.9 µM	44 µM	53 µM	28.4 µM
–	–	–	–	N#Cc1c[nH]cc1-c1cccc2c1OC(F)(F)O2 [Fludioxonil]	Inactive	1.53 µM	18.6 µM	5.3 µM	5.11 µM
–	–	–	–	CC(C)N(C(=O)COc1nnc(C(F)(F)F)s1)c1ccc(F)cc1 [Flufenacet]	Inactive	37 µM	35.6 µM	3.4 µM	19.3 µM
–	–	–	–	N#Cc1cc(I)c(O)c(I)c1 [Ioxynil]	Inactive	46.2 µM	22.4 µM	83.2 µM	38.5 µM
–	–	–	–	O=C(NC(=O)c1c(F)cccc1F)Nc1cc(Cl)c(OC(F)(F)C(F)C(F)(F)F)cc1Cl (stereo not drawn) [Lufenuron]	Inactive	35.7 µM	11.3 µM	10.9 µM	7.45 µM
–	–	–	–	CCCCCC1C(=O)CCC1CC(=O)OC (stereo not drawn) [Methyl dihydrojasmonate]	Inconclusive inhibitor	27.2 µM	28.4 µM	2.53 µM	8.73 µM
–	–	–	–	BrC(Br)C(Br)(Br)Br [Pentabromoethane]	Inconclusive inhibitor	33.2 µM	22.7 µM	48.6 µM	16.1 µM
–	–	–	–	Clc1nc(Cl)c(Cl)c(Cl)c1Cl [Pentachloropyridine]	Inactive	41.8 µM	62.4 µM	61.1 µM	8.61 µM
–	–	–	–	CSc1nc(NC(C)C)nc(NC(C)C)n1 [Prometryn]	Inactive	17.3 µM	58.2 µM	71 µM	29.1 µM
